Test results taken from patent US20240400584A1, “COMPOUNDS AND METHODS FOR MODULATING SPLICING” (REMIX THERAPEUTICS INC., priority 2021, published 2024).

Columns and labels:
HTT [1] = experiment: RT-qPCR splicing assay, HTT AJ/CJ mRNA; type: cell-based, human; conditions: Homo sapiens, 24 h, A673 or K562 cells; for IC50: decrease in canonical junction mRNA; for AC50: increase in alternative junction mRNA
Protocol: (§1) Compounds described herein were used to modulate RNA transcript abundance in cells. The expression of a target mRNA was measured by detecting the formation of an exon-exon junction in the canonical transcript (CJ). A compound mediated exon-inclusion event was detected by observing an increase in formation OF A new junction with an alternative exon (AJ). Real-time qPCR assays were used to detect these splicing switches and interrogate the potency of various compounds towards different target Genes. A high-throughput real time quantitative PCR (RT-qPCR) assay was developed to measure these two isoforms of the mRNA (CJ and AJ) for exemplary genes, such as HTT, SMN2, and MYB, together with a control housekeeping gene, GAPDH or GUSB or PPIA, used for normalization. Briefly, the A673 or K562 cell line was treated with various compounds described herein (e.g., compounds of Formula (i)). After treatment, the levels of the HTT, MYB, or SMN2 mRNA targets were determined from each sample of cell lysate by cDNA synthesis followed by qPCR.
(§2) The A673 cell line was cultured in DMEM with 10% FBS. Cells were diluted with full growth media and plated in a 96-well plate (15,000 cells in 100 ul media per well). The plate was incubated at 37° C. with 5% CO2 for 24 hours to allow cells to adhere. An 11-point 3-fold serial dilution of the compounds was made in DMSO then diluted in media in an intermediate plate. Compounds were transferred from the intermediate plate to the cell plate with the top dose at a final concentration of 10 uM in the well. Final DMSO concentration was kept at or below 0.25%. The cell plate was returned to the incubator at 37° C. with 5% CO2 for an additional 24 hours.
(§3) The K562 cell line was cultured in IMDM with 10% FBS. For K562, cells were diluted with full growth media and plated in either a 96-well plate (50,000 cells in 50 uL media per well) or a 384-well plate (8,000-40,000 cells in 45 uL media per well). An 11-point 3-fold serial dilution of the compounds were made in DMSO then diluted in media in an intermediate plate. Compound was transferred from the intermediate plate to the cell plate with the top dose at a final concentration of 10 uM in the well. Final DMSO concentration was kept at or below 0.25%. Final volume was 100 uL for 96-well plate and 50 uL for 384-well plate. The cell plate was then placed in an incubator at 37° C. with 5% CO2 for 24 hours.
(§4) The cells were then gently washed with 50 uL-100 uL Cold Pbs before proceeding to addition of lysis buffer. 30 uL-50 μL of room temperature lysis buffer with DNAse I (and optionally RNAsin) was added to each well. Cells were shaken/mixed thoroughly at room temperature for 5-10 minutes for lysis to take place and then 3 uL-5 μL of room temperature stop solution was added and wells were shaken/mixed again. After 2-5 minutes, the cell lysate plate was transferred to ice for RT-qPCR reaction setup. The lysates could also be frozen at −80° C. for later use.
(§5) In some cases, a direct lysis buffer was used. an appropriate volume of 3× lysis buffer (10 mM tRis, 150 mM NaCl, 1.5%-2.5% Igepal and 0.1-1 U/uL RNAsin, pH 7.4) was directly added to either K562 or A673 cells in media and mixed by pipetting 3 times. The plates were then incubated at room temperature with shaking/rocking for 20-50 minutes to allow for lysis to take place. After this time, the cell lysate plate was transferred to ice to set up for the RT-qPCR reactions. The lysates could also be frozen at −80° C. for later use.
(§6) To set up 10 uL RT-QpcR reactions, cell lysates were transferred to 384-well qPCR plates containing the master mix according to the table below. The plates were sealed, gently vortexed, and spun down before the run. The volumes were adjusted accordingly in some instances where the reaction was carried in 20 µL. The table below summarizes the components of the RT-qPCR reactions:
(§7) The RT-qPCR reaction was performed using a QuantStudio (ThermoFisher) under the following fast cycling conditions. […]

MYB [2] = experiment: RT-qPCR splicing assay, MYB AJ/CJ mRNA; type: cell-based; conditions: Homo sapiens, A673 or K562 cells, 24 hours; for IC50: decrease in canonical junction mRNA; for AC50: increase in alternative junction mRNA
Protocol: as §1, §2, §3, §4, §5, §6, §7

HTT [3] = experiment: Gene panel canonical junction qPCR assay, HTT CJ mRNA (Table 7); type: cell-based, human; conditions: Homo sapiens, read-out: HTT CJ mRNA decrease IC50
Protocol: as §1
(§8) The data analysis was performed by first determining the ΔCt vs the housekeeper gene. This ΔCt was then normalized against the DMSO control (ΔΔCt) and converted to RQ (relative quantification) using the 2^(−ΔΔCt) equation. The RQ were then converted to a percentage response by arbitrarily setting an assay window of 3.5 and 4.0 ΔCt for HTT-CJ and MYB-CJ respectively and an assay window of 9 and 3 ΔCt for HTT-AJ and MYB-AJ in 96 well format (50,000 K562 cells/well and 15,000 A673 cells per well) and an assay window of 3 and 4 ΔCt for HTT-CJ and MYB-CJ respectively and an assay window of 5 and 3 ΔCt for HTT-AJ and MYB-AJ respectively in 384 well format (8,000 K562 cells/well example). […] The percentage response was then fitted to the 4 parametric logistic equation to evaluate the concentration dependence of compound treatment. The increase in AJ mRNA is reported as AC50 (compound concentration having 50% response in AJ increase) while the decrease in CJ mRNA levels is reported as IC50 (compound concentration having 50% response in CJ decrease).
(§9) Additional studies were carried out for a larger panel of genes using the protocol provided above. The junction between flanking upstream and downstream exons was used to design canonical junction qPCR assays. At least one of the forward primer, reverse primer or the CY5-labeled 5′ nuclease probe (with 3′ quencher such as ZEN/Iowa Black FQ) was designed to overlap with the exon junction to capture the CJ mRNA transcript. BLAST was used to confirm the specificity of the probeset and parameters such as melting temperature, GC content, amplicon size, and primer dimer formation are considered during their design. Data for the decrease in CJ mRNA levels for four exemplary genes (HTT, SMN2, MYB, and Target C) analyzed in this panel are reported as IC50 (compound concentration having 50% response in CJ decrease).

SMN2 = experiment: Gene panel canonical junction qPCR assay, SMN2 CJ mRNA (Table 7); type: cell-based; conditions: Homo sapiens, read-out: SMN2 CJ mRNA decrease IC50
Protocol: as §1, §8, §9

MYB [4] = experiment: Gene panel canonical junction qPCR assay, MYB CJ mRNA (Table 7); type: cell-based; conditions: Homo sapiens, read-out: MYB CJ mRNA decrease IC50
Protocol: as §1, §8, §9

Target C = experiment: Gene panel canonical junction qPCR assay, Target C CJ mRNA (Table 7); type: cell-based, human; conditions: Homo sapiens, read-out: Target C CJ mRNA decrease IC50
Protocol: as §1, §8, §9

Row | SMILES | IC50 (HTT [1]) | IC50 (MYB [2]) | IC50 (HTT [3]) | IC50 (SMN2) | IC50 (MYB [4]) | IC50 (Target C) | AC50 (HTT [1]) | AC50 (MYB [2])
1 | CCC(C)(C)NC1CCN(c2ccc3c(n2)OCc2cc(-c4cnnc(OC)c4)ccc2-3)C1 (stereo not shown) [Compound 281, 1-[8-(6-methoxypyridazin-4-yl)-6H-isochromeno[3,4-b]pyridin-3-yl]-N-(2-methylbutan-2-yl)pyrrolidin-3-amine] | < 100 nM | 100 to 1000 nM | < 100 nM | < 100 nM | 100 to 1000 nM | 100 to 1000 nM | < 100 nM | 100 to 1000 nM
2 | CN(c1ccc2c(n1)OCc1cc(-c3cn[nH]c3)c(F)cc1-2)C1CC(C)(C)NC(C)(C)C1 [Compound 233, 9-fluoro-N-methyl-8-(1H-pyrazol-4-yl)-N-(2,2,6,6-tetramethylpiperidin-4-yl)-6H-isochromeno[3,4-b]pyridin-3-amine] | < 100 nM | 100 to 1000 nM | < 100 nM | < 100 nM | 100 to 1000 nM | 100 to 1000 nM | 100 to 1000 nM | 1000 to 10000 nM
3 | COc1cc(-c2ccc3c(c2)COc2nc(N4CCC(N(C)CC5CC5)C4)ccc2-3)cnn1 (stereo not shown) [Compound 308] | 100 to 1000 nM | 1000 to 10000 nM | 100 to 1000 nM | 100 to 1000 nM | 1000 to 10000 nM | 1000 to 10000 nM | 1000 to 10000 nM | 1000 to 10000 nM
4 | CC(C)(C)NC1CCN(c2ccc3c(n2)OCc2cc(-c4c(F)cn[nH]c4=O)ccc2-3)C1 (stereo not shown) [Compound 315, 4-{3-[3-(tert-butylamino)pyrrolidin-1-yl]-6H-isochromeno[3,4-b]pyridin-8-yl}-5-fluoro-2H-pyridazin-3-one] | > 10000 nM | > 10000 nM | > 10000 nM | > 10000 nM | > 10000 nM | > 10000 nM | > 10000 nM | > 10000 nM
5 | CN(c1ccc2c(n1)OCc1cc(-n3cccn3)ccc1-2)C1CCNCC1 [Compound 175] | > 10000 nM | > 10000 nM | > 10000 nM | 1000 to 10000 nM | > 10000 nM | > 10000 nM | 1000 to 10000 nM | > 10000 nM
6 | COc1cc(-c2ccc3c(c2)COc2nc(N4CCC(N(C)C(C)C)C4)ccc2-3)cnn1 (stereo not shown) [Compound 311] | 100 to 1000 nM | 1000 to 10000 nM | 100 to 1000 nM | 100 to 1000 nM | 1000 to 10000 nM | 1000 to 10000 nM | 100 to 1000 nM | 100 to 1000 nM
7 | COc1cc(-c2ccc3c(c2)COc2nc(N4CCC(NC5CC5)C4)ccc2-3)cnn1 (stereo not shown) [Compound 255, N-cyclopropyl-1-[8-(6-methoxypyridazin-4-yl)-6H-isochromeno[3,4-b]pyridin-3-yl]pyrrolidin-3-amine] | 100 to 1000 nM | 1000 to 10000 nM | 100 to 1000 nM | 100 to 1000 nM | 1000 to 10000 nM | 1000 to 10000 nM | 1000 to 10000 nM | 1000 to 10000 nM
8 | c1cnn(-c2ccc3c(c2)COc2nc(N[C@@H]4C[C@H]5CC[C@@H](C4)N5)ccc2-3)c1 [Compound 179] | 100 to 1000 nM | 100 to 1000 nM | 100 to 1000 nM | 100 to 1000 nM | 100 to 1000 nM | 100 to 1000 nM | 100 to 1000 nM | 100 to 1000 nM
9 | COc1cc(-c2cc3c(cc2F)-c2ccc(N(C)[C@@H]4C[C@H]5CC[C@@H](C4)N5)nc2OC3)cnn1 [Compound 242] | < 100 nM | 1000 to 10000 nM | < 100 nM | < 100 nM | 100 to 1000 nM | < 100 nM | < 100 nM | < 100 nM

Second part, led by results:

Row | IC50 (HTT [1]) | IC50 (MYB [2]) | IC50 (HTT [3]) | IC50 (SMN2) | IC50 (MYB [4]) | IC50 (Target C) | SMILES | AC50 (HTT [1]) | AC50 (MYB [2])
10 | > 10000 nM | > 10000 nM | > 10000 nM | 1000 to 10000 nM | > 10000 nM | > 10000 nM | c1cnn(-c2ccc3c(c2)COc2nc(N4C[C@H]5CNC[C@H]5C4)ccc2-3)c1 [Compound 185] | > 10000 nM | 1000 to 10000 nM
11 | 100 to 1000 nM | 1000 to 10000 nM | 100 to 1000 nM | 100 to 1000 nM | 1000 to 10000 nM | 100 to 1000 nM | CC(C)(C)N[C@H]1CCN(c2ccc3c(n2)OCc2cc(-c4cn[nH]c4)ccc2-3)C1 [Compound 258, (3S)—N-tert-butyl-1-[8-(1H-pyrazol-4-yl)-6H-isochromeno[3,4-b]pyridin-3-yl]pyrrolidin-3-amine] | 100 to 1000 nM | 100 to 1000 nM
12 | 1000 to 10000 nM | 1000 to 10000 nM | 1000 to 10000 nM | 100 to 1000 nM | 1000 to 10000 nM | 1000 to 10000 nM | CC(C)(C)NC1CCN(c2ccc3c(n2)OCc2cc(-n4nccn4)ccc2-3)C1 (stereo not shown) [Compound 250, N-tert-butyl-1-[8-(1,2,3-triazol-2-yl)-6H-isochromeno[3,4-b]pyridin-3-yl]pyrrolidin-3-amine 2,2,2-trifluoroacetate] | 100 to 1000 nM | 1000 to 10000 nM
13 | < 100 nM | 100 to 1000 nM | < 100 nM | < 100 nM | 100 to 1000 nM | 100 to 1000 nM | COc1cc(-c2ccc3c(c2)COc2nc(N4CC[C@H](N(C)C(C)(C)C)C4)ccc2-3)cnn1 [Compound 270, (3S)—N-tert-butyl-1-[8-(6-methoxypyridazin-4-yl)-6H-isochromeno[3,4-b]pyridin-3-yl]-N-methylpyrrolidin-3-amine] | < 100 nM | 100 to 1000 nM
14 | > 10000 nM | 1000 to 10000 nM | > 10000 nM | 100 to 1000 nM | 1000 to 10000 nM | > 10000 nM | c1cnn(-c2ccc3c(c2)COc2nc(N4CCC5(CCCNC5)C4)ccc2-3)c1 (stereo not shown) [Compound 183] | > 10000 nM | > 10000 nM
